Results on 8 compounds are retold here after PubChem BioAssay (NCI).

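Five compound concentrations were applied to cells in 96-well plates for 48 hours; endpoints were derived by simple linear interpolation of the resulting dose-response curve. The concentration for 50% growth inhibition is given as GI50. TGI denotes the concentration required for complete inhibition of growth.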

Holding throughout (experiment): NCI tumour cell line growth inhibition, 48 h
Experiment [1] relates to OVCAR-8 ovarian.
In experiment [2] the test system is RPMI-8226 leukemia.
Experiment [3] deals with EKVX NSCLC.
Experiment [4] deals with OVCAR-3 ovarian.
In experiment [5] the test system is HT29 colon.
In experiment [6] the test system is UACC-257 melanoma.
Experiment [7] deals with HS 578T breast.
Experiment [8] concerns SK-MEL-2 melanoma.
Experiment [9] deals with NCI-H522 lung.
For experiment [10], the system named is NCI-H226 lung.

`Cc1cccc2c1NC(=O)C2(c1ccc(O)cc1)c1ccc(O)cc1`: the GI50 in [1] is under 0.0192 µM; in experiment [2], 17.9 µM; in experiment [3], 16.4 µM; in experiment [4], under 0.01 µM; in experiment [5], 15.7 µM; in [6], 18.4 µM. Also, the GI50 in [7] was under 0.01 µM; in experiment [8], 15.7 µM; in [9] it was 12.6 µM; in experiment [10], 18 µM. The TGI stood at 13.7 µM in experiment [1]; 64 µM in experiment [2]; 98.9 µM in experiment [3]; 14 µM in [4]; 46.5 µM in experiment [5]; 49.2 µM in experiment [6]. Besides, the TGI was under 0.0192 µM in experiment [7], 37.8 µM in experiment [8], 33.4 µM in [9] and 59 µM in [10].

As to `Cc1ccc(C(CC(=O)c2ccccc2)C(C(=O)c2ccccc2)C(c2ccc(C)cc2)C2C(=O)NC(=S)NC2=O)cc1` (configuration not stated), the GI50 in [1] is 16.9 µM; in experiment [2] it was 44.2 µM; in experiment [3] it was 19.5 µM; in experiment [4], 19 µM; in experiment [5], 28.1 µM; in experiment [6], 13.4 µM. Further, the GI50 in experiment [7] was 21.7 µM; in experiment [8], 7.96 µM; in experiment [9], 7.87 µM; in experiment [10], 14.9 µM. Further, the TGI in [1], in experiment [2], in experiment [3], in experiment [4], in experiment [5] and in experiment [6] was over 50 µM throughout. Further, the TGI in [7] was over 50 µM; in experiment [8], over 50 µM; in experiment [9] it was 30.2 µM; in experiment [10] it was over 50 µM.

As to `C=CCCC(O)c1ccc(CCCCCCCCCCC)o1` (configuration not stated), the GI50 in [1] is 18.3 µM; in experiment [2], 14 µM; in [3] it was 18.2 µM; in [4], 16.1 µM; in experiment [5], 16.1 µM; in experiment [6] it was 18.6 µM. The GI50 in experiment [7] was 12.6 µM; in experiment [8] it was 17.6 µM; in experiment [9], 17 µM; in experiment [10], 17.7 µM. For the same compound, the TGI in [1] worked out at 35.6 µM; in experiment [2], 38.6 µM; in experiment [3], 32.9 µM; in experiment [4], 35.9 µM; in [5] it was 33.5 µM; in experiment [6] it was 33.9 µM. The TGI came out at 30.2 µM in [7], 37.1 µM in experiment [8], 32.8 µM in experiment [9] and 33.1 µM in experiment [10].

With `CCCC(=O)Nc1ncnc2c1ncn2C1OC2COP(=O)(O)OC2C1OC(=O)CCC` (configuration not stated), the GI50 in experiment [1], in experiment [3], in experiment [4], in experiment [5], in experiment [6] and in experiment [8] was over 1000 µM throughout. The GI50 in experiment [9] and in experiment [10] was over 1000 µM each time. The TGI in experiment [1], in experiment [2], in experiment [3], in experiment [4], in experiment [5] and in experiment [6] was over 1000 µM in each case. Also, the TGI in experiment [7], in experiment [8], in experiment [9] and in experiment [10] was over 1000 µM in each case.

Turning to `O=C(Nc1ccc(Cl)cc1F)c1cc(Cl)ccc1O`, the GI50 is 0.619 µM in experiment [1]; 0.302 µM in experiment [2]; 0.891 µM in experiment [3]; 0.412 µM in experiment [4]; 3.2 µM in [5]; 0.482 µM in experiment [6]. Besides, the GI50 in experiment [7] was 0.341 µM; in [8], 0.338 µM; in experiment [9], 0.337 µM; in [10], 0.429 µM. Moreover, the TGI in experiment [1] is over 37.2 µM; in experiment [2], 1.75 µM; in experiment [3], 8.27 µM; in [4], over 20.5 µM; in experiment [5], over 31.2 µM; in [6], 6.89 µM. Also, the TGI in [7] turned out to be 3.65 µM; in experiment [8] it was 1.72 µM; in experiment [10] it was 7.21 µM.

For `O=C1C(Cl)=C(Nc2ccccn2)C(=O)c2ccccc21`, the GI50 in experiment [1] was 3.25 µM; in [2], 2.15 µM; in [3] it was 17.2 µM; in experiment [4] it was 1.86 µM; in experiment [5], 26.2 µM; in experiment [6] it was 1.91 µM. For the same compound, the GI50 is 3.65 µM in experiment [7], 3.05 µM in experiment [8], 1.89 µM in experiment [9] and 1.92 µM in experiment [10]. For the same compound, the TGI in experiment [1] amounted to 13 µM; in experiment [2], 7.03 µM; in [3] it was 49.4 µM; in experiment [4], 3.98 µM; in [5], 62.5 µM; in [6], 3.84 µM. Besides, the TGI in experiment [7] was over 100 µM; in experiment [8], 6.66 µM; in [9], 3.69 µM; in experiment [10], 5.49 µM.

Consider `COc1ccc(CCN2COc3ccc4ccc(=O)oc4c3C2)cc1OC`, for which the TGI in [1] is over 100 µM; in experiment [2], 52.8 µM; in experiment [3], over 100 µM; in experiment [4], over 100 µM; in [5], over 100 µM; in [6], over 100 µM. The TGI in experiment [7], in [8], in [9] and in experiment [10] was over 100 µM in each case.

As for `Cc1[nH]c2ccccc2c1C1=CC(=O)C=CC1=O`, the GI50 in experiment [1] is 13.2 µM; in experiment [2], 11 µM; in [3], 17.7 µM; in experiment [4] it was 2.16 µM; in experiment [5] it was 13.6 µM; in experiment [6], 14.3 µM. Moreover, the GI50 was 8.86 µM in experiment [7], 12.3 µM in experiment [8], 1.66 µM in experiment [9] and 15.6 µM in [10]. The TGI in [1] stood at 34.9 µM; in experiment [2] it was 38.2 µM; in experiment [3], 45 µM; in experiment [4] it was 4.6 µM; in experiment [5], 40.1 µM; in experiment [6], 28.6 µM. Also, the TGI in [7] turned out to be 53.3 µM; in experiment [8] it was 28.9 µM; in experiment [9], 3.28 µM; in experiment [10], 30.9 µM.
